Several values for one entry are separate records, joined by “and”; a condition that tells them apart may be missing. Equal entries are not always repeated.
Tested on: 885512-296-R-J2-PDC complex spheroid growth, % test/control
Assay: Anticancer human tumor 885512-296-R-J2-PDC patient-derived breast carcinoma cell line growth inhibition [AhR]
Settings: for viability, T/C: stronger effect = lower value
Excerpt: Multicellular complex tumor spheroid response to aryl hydrocarbon receptor antagonists in combination with a variety of drugs and investigational agents in selected tumor cell lines
The current study was undertaken to assess response to aryl hydrocarbon receptor antagonists in combination with standard-of-care drugs and investigational agents in solid tumor complex spheroid models. Complex spheroids include a stromal component modeled by human endothelial cells (HUVEC) and fibroblasts modeled by human mesenchymal stem cells (MSCs). The concentration ranges selected for each drug and investigational agent were based upon clinically achievable concentrations if the clinical Cmax of the agent was known.
Compounds. The drugs and investigational agents: BAY 2416964 (NSC825713), GNF351 (NSC835774), CH-223191 (NSC835775), CPI-455 (NSC825282), aza-TdCyd (NSC777586), decitabine (NSC127716), belinostat (NSC758774), entinostat (NSC756642), pevonedistat (NSC761192), tazemetostat (NSC777109), talazoparib (NSC765396), olaparib (NSC753686), selinexor (NSC780203), nedisertib (M3814, NSC802822), bortezomib (NSC756655), venetoclax (NSC766270), doxorubicin (NSC123127), elimusertib (BAY189344, NSC800525), ceralasertib (AZD6738, NSC777638), TAK-243 (NSC785004), alisertib (NSC759677), etoposide (NSC141540), topotecan (NSC609699), eribulin (NSC707389), gemcitabine (NSC613327), carboplatin (NSC241240), cisplatin (NSC119875), and SN-38 (NSC673596) were obtained from the National Cancer Institute (NCI) Developmental Therapeutics Program Chemical Repository (32). The FDA-approved anticancer drug set is available from the Developmental Therapeutics Program at https://dtp.cancer.gov/organization/dscb/obtaining/available plates.htm. […] The stock solutions were prepared in dimethyl sulfoxide (DMSO, Sigma-Aldrich, St. Louis, MO, cat. D2650), except for the platinum compounds which were prepared in saline (Quality Biological, Gaithersburg, MD, cat. 114-055-101), at 800-fold the tested concentration and stored at -70 degrees C prior to their use. All drugs and investigational agents were tested over a range starting from a high concentration at or near the clinical Cmax and decreasing in half-log increments. If the clinical Cmax for an agent had not been determined, the highest concentration tested was 10 microM (Table 1).
Cell Culture. All cells were maintained in an incubator at 37 degrees C and 5% CO2 with 95% humidity. The PDC lines were cultured according to standard operating procedures established by the NCI PDMR (https://pdmr.cancer.gov). Briefly, all PDCs were thawed and cultured in Matrigel-coated flasks prepared with a working solution of 1X Ham's F-12 nutrient mix, without supplementation (Invitrogen, Waltham, MA, cat. 11765054), 100 U/mL penicillin-streptomycin (Invitrogen, cat. 15140122), and 2.5% Matrigel (Corning Inc., Corning, NY, cat. 354248) for the first three passages. All PDCs were cultured in complete DMEM/F-12 media containing advanced DMEM/F-12 (Invitrogen, cat. 12634028), 4.9% defined fetal bovine serum, heat inactivated (HyClone Laboratories Inc., Logan, UT, cat. SH30070.03HI), 389 ng/mL hydrocortisone (Sigma-Aldrich, cat. H4001), 9.7 ng/mL human EGF recombinant protein (Invitrogen, cat. PHG0313), 23.4 microg/mL adenine (Sigma-Aldrich, cat. A2786), 97.3 U/mL penicillin-streptomycin (Invitrogen, cat. 15140122), 1.9 mM L-glutamine (Invitrogen, cat. 25030081), and 9.7 microM Y-27632 dihydrochloride (Tocris Bioscience, Bristol, United Kingdom, cat. 1254). The PDCs were cultured in complete DMEM/F12 media without 10 microM Y-27632 dihydrochloride for at least two passages prior to the screen. The established cell lines NCI-H1341 and […] were cultured in DMEM/F-12, HEPES (Invitrogen, cat. 11330032), 5% defined fetal bovine serum (HyClone Laboratories Inc., cat. SH30070.03), ITS premix universal culture supplement [insulin (5 microg/mL), transferrin (5 microg/mL), and selenious acid (5 ng/mL)] […]
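Also: spheroids exposed to compounds for seven days.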

Q: For Cn1ncnc1C1c2n[nH]c(=O)c3cc(F)cc(c23)NC1c1ccc(F)cc1 (configuration not stated), which viability, T/C (compound 0.000316 µM) is on record?
A: Its viability, T/C is 96.9% and 103% and 101%.

Q: And the viability, T/C (compound 0.001 µM)?
A: Its viability, T/C is 88.9% and 93.1% and 107%.

Q: And the viability, T/C (compound 0.00316 µM)?
A: The viability, T/C was 90.6% and 91.2% and 108%.

Q: And the viability, T/C (compound 0.01 µM)?
A: The viability, T/C was 88.6% and 93.7% and 89%.

Q: And the viability, T/C (compound 0.0316 µM)?
A: Its viability, T/C is 79.9% and 75.4% and 87.3%.

Q: What about the viability, T/C (compound 0.1 µM) of the same molecule?
A: Its viability, T/C is 58% and 57% and 53.9%.

Q: And the IC50 (curve of compound)?
A: Its IC50 is over 0.1 µM.

Q: With COc1cc(Nc2ncc3c(n2)-c2ccc(Cl)cc2C(c2c(F)cccc2OC)=NC3)ccc1C(=O)O + Cc1ccccc1N=Nc1ccc(NC(=O)c2ccnn2C)c(C)c1 as the molecule, how does the IC50 (curve of first compound, second compound 0.1 µM) read?
A: Its IC50 is 4.1 µM.

Q: What about the IC50 (curve of first compound, second compound 0.316 µM) of the same molecule?
A: The IC50 was over 10 µM.

Q: And the IC50 (curve of first compound, second compound 1 µM)?
A: Its IC50 is 5.48 µM.

Q: What about the IC50 (curve of first compound, second compound 3.16 µM) of the same molecule?
A: The IC50 was 1.98 µM.

Q: And the IC50 (curve of first compound, second compound 10 µM)?
A: The IC50 was under 0.0316 µM.

Q: And the viability, T/C (second compound 0.1 µM, first compound 0.0316 µM)?
A: Its viability, T/C is 61.3%.

Q: What about the viability, T/C (second compound 0.1 µM, first compound 0.1 µM) of the same molecule?
A: Its viability, T/C is 51.4%.

Q: What about the viability, T/C (second compound 0.1 µM, first compound 0.316 µM) of the same molecule?
A: Its viability, T/C is 59.2%.

Q: And the viability, T/C (second compound 0.1 µM, first compound 1 µM)?
A: The viability, T/C was 59.2%.

Q: What about the viability, T/C (second compound 0.1 µM, first compound 3.16 µM) of the same molecule?
A: Its viability, T/C is 52.2%.

Q: What about the viability, T/C (second compound 0.1 µM, first compound 10 µM) of the same molecule?
A: Its viability, T/C is 38.9%.

Q: What about the viability, T/C (second compound 0.316 µM, first compound 0.0316 µM) of the same molecule?
A: The viability, T/C was 62.9%.

Q: What about the viability, T/C (second compound 0.316 µM, first compound 0.1 µM) of the same molecule?
A: The viability, T/C was 48.8%.

Q: And the viability, T/C (second compound 0.316 µM, first compound 0.316 µM)?
A: The viability, T/C was 57.8%.

Q: And the viability, T/C (second compound 0.316 µM, first compound 1 µM)?
A: Its viability, T/C is 50.6%.

Q: What about the viability, T/C (second compound 0.316 µM, first compound 3.16 µM) of the same molecule?
A: Its viability, T/C is 53.5%.

Q: And the viability, T/C (second compound 0.316 µM, first compound 10 µM)?
A: The viability, T/C was 47.6%.

Q: What about the viability, T/C (second compound 1 µM, first compound 0.0316 µM) of the same molecule?
A: Its viability, T/C is 56.8%.

Q: What about the viability, T/C (second compound 1 µM, first compound 0.1 µM) of the same molecule?
A: Its viability, T/C is 54.8%.

Q: What about the viability, T/C (second compound 1 µM, first compound 0.316 µM) of the same molecule?
A: The viability, T/C was 65.9%.

Q: And the viability, T/C (second compound 1 µM, first compound 1 µM)?
A: Its viability, T/C is 58.1%.

Q: And the viability, T/C (second compound 1 µM, first compound 3.16 µM)?
A: Its viability, T/C is 46.2%.

Q: And the viability, T/C (second compound 1 µM, first compound 10 µM)?
A: Its viability, T/C is 49%.

Q: What about the viability, T/C (second compound 3.16 µM, first compound 0.0316 µM) of the same molecule?
A: The viability, T/C was 51.4%.

Q: What about the viability, T/C (second compound 3.16 µM, first compound 0.1 µM) of the same molecule?
A: The viability, T/C was 46.6%.

Q: And the viability, T/C (second compound 3.16 µM, first compound 0.316 µM)?
A: Its viability, T/C is 55%.

Q: What about the viability, T/C (second compound 3.16 µM, first compound 1 µM) of the same molecule?
A: The viability, T/C was 54.4%.

Q: And the viability, T/C (second compound 3.16 µM, first compound 3.16 µM)?
A: Its viability, T/C is 47.1%.

Q: And the viability, T/C (second compound 3.16 µM, first compound 10 µM)?
A: Its viability, T/C is 43.3%.

Q: And the viability, T/C (second compound 10 µM, first compound 0.0316 µM)?
A: Its viability, T/C is 45.6%.

Q: What about the viability, T/C (second compound 10 µM, first compound 0.1 µM) of the same molecule?
A: The viability, T/C was 40.9%.

Q: What about the viability, T/C (second compound 10 µM, first compound 0.316 µM) of the same molecule?
A: The viability, T/C was 40.6%.

Q: What about the viability, T/C (second compound 10 µM, first compound 1 µM) of the same molecule?
A: Its viability, T/C is 39.6%.

Q: What about the viability, T/C (second compound 10 µM, first compound 3.16 µM) of the same molecule?
A: The viability, T/C was 36.5%.

Q: What about the viability, T/C (second compound 10 µM, first compound 10 µM) of the same molecule?
A: The viability, T/C was 37.7%.
